US20140057895A1, “INDAZOLE- AND PYRROLOPYRIDINE-DERIVATIVE AND PHARMACEUTICAL USE THEREOF” (priority 2011, published 2014)
Where a name gives a salt, the structure may show the parent alone.

Columns and labels:
[1] = target: T1, human 5-HT4b receptor (Homo sapiens, UniProt Q13639); test: Test Example 4: Serotonin 4 (5-HT4) receptor agonist activity assay, cAMP HTRF in CHO cells (Table 100); assay type: cell-based; conditions: mean value; for Emax: CHO, 0.25 h, intrinsic activity, maximal activity of 5-HT defined as 100%, read-out: IA (%); for EC50: concentration showing 50% of IA
T1 construct: expressed in transfected cells; host or cells: CHO cells (G418 selection)
How it was run: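 Read-out is HTRF cAMP (time-resolved fluorescence 620/665 nm after 1 h RT with cAMP-cryptate and cAMP-d2), from recombinant CHO cells bearing human 5-HT4b treated with compound 15 min at 31° C. in Hanks/HEPES buffer pH 7.4. IA (%) scaled to peak 5-HT effect over 10^−11–10^−7 M; EC50 is concentration giving half that IA.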

[2] = target: T2, 5-HT4 receptor (Cavia porcellus, UniProt O70528); test: Test Example 3: Guinea pig 5-HT4 receptor binding assay, [3H]-GR113808, striatum membranes (Table 98); conditions: Guinea pig 5-HT4 receptor binding assay, [3H]-GR113808, striatum membranes; mean value of each group; read-out: IC50
T2 construct: striatum was isolated which was cryopreserved at −80° C. until use; from tissue; host or cells: guinea pig (Slc-Hartley) striatum membranes
How it was run: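 Striatal membranes from Slc-Hartley guinea pigs were incubated with 0.1 nM [3H]-GR113808 and test compounds in 50 mM Hepes pH 7.4 at 37° C for 30 min; nonspecific binding was defined with 30 μM serotonin. Bound radioactivity was collected by filtration, and IC50 was derived from inhibition of specific binding.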

[3] = target: T2, 5-HT4 receptor; test: Test Example 1: Serotonin 4 (5-HT4) receptor binding assay, [3H]-GR113808, guinea pig striatum membranes (Table 96); conditions: Guinea pig 5-HT4 receptor binding assay, [3H]-GR113808, striatum membranes; mean value of each group
Procedure: The 5-HT4 receptor binding assay and preparations of receptor membrane preparations herein were carried out according to a method of Grossman et al. [see, British J. Pharmacol., (1993) 109, 618].
Slc-Hartley guinea pigs (body weight 300 g to 400 g) were decapitated to remove brain rapidly, and striatum was isolated which was cryopreserved at −80° C. until use. To the obtained tissues were added fifteen fold of Hepes buffer (50 mM, pH 7.4, 4° C.), and the mixture was homogenized by Teflon (trademark) homogenizer and centrifuged at 48,000×g (4° C.) for 15 minutes. To the resulting precipitate was added Hepes buffer (1 ml) to 30 mg by wet weight of tissues, and the mixture was suspended to give receptor membrane preparations.
To an assay tube were added 0.1 nM [^3H]-GR113808 {chemical name: [1-[2-(methylsulfonylamino)ethyl]-4-piperidinyl]methyl 1-methylindole-3-carboxylate}, receptor membrane preparations, and Hepes buffer (50 mM, pH 7.4, 4° C., 1 ml) containing test compounds or 30 μM serotonin; and the mixture was incubated at 37° C. for 30 minutes. On quenching the reaction, the mixture was rapidly filtered on whatman GF/B filter, which was presoaked in 0.1% polyethyleneimine for 1 hour, by using Brandel cell Harvester, and washed with ice-cooled 50 mM Tris-HCl (pH 7.7, 4 ml) three times. To the filter after filtration was added a liquid scintillator (Ecoscint), and then a radioactivity was determined by a liquid scintillation counter.
50% Inhibition concentrations (IC50) were determined from inhibition rates of test compounds to specific bindings which were obtained by subtracting nonspecific bindings from total binding amounts of [^3H]-GR113808.
In the following table, the compounds used in the test are shown in numbers which correspond to the Example numbers above where the preparations of the compounds are described.

[4] = target: T3, Human 5-HT4 receptor (5-HT4b) (Homo sapiens, UniProt Q13639); test: Test Example 3: Human 5-HT4 receptor binding assay, membranes of CHO-K1 cells stably expressing 5-HT4b receptors (Table 99); conditions: mean value of each group
T3 construct: expressed in transfected cells; membrane preparation
How it was run: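 Radioligand displacement: [3H]-GR113808 (0.1 nM) bound to CHO-K1 5-HT4b membranes for 30 min at 37 °C in Hepes buffer (50 mM, pH 7.4). Specific binding is total minus that with 30 μM serotonin; filter-bound radioactivity counted, IC50 derived from percent inhibition.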

T2 sequence (O70528 whole entry): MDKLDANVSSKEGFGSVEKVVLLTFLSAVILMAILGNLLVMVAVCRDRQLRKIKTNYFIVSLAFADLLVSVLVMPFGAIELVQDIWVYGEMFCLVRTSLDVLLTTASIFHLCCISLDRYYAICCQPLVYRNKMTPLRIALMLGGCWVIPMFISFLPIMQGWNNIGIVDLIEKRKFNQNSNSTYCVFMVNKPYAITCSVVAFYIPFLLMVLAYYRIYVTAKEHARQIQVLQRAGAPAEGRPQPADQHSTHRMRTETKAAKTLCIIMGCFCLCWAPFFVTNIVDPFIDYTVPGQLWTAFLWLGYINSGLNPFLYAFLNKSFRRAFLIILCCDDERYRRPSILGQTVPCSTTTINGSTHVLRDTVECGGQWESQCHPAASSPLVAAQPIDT
T1 sequence (Q13639 whole entry): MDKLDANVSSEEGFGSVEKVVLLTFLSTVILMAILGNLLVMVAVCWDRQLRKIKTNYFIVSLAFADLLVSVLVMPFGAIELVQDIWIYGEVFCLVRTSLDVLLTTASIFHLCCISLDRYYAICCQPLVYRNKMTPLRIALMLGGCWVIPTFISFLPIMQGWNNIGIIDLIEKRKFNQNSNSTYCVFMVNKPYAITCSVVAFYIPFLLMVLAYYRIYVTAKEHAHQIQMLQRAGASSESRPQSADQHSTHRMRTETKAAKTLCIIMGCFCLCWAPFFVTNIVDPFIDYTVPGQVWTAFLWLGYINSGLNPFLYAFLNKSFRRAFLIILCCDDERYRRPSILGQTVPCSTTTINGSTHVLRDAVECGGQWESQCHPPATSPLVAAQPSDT
T3 sequence (Q13639 whole entry): as above

Emax [1] [%]	EC50 [1] [nM]	IC50 [2] [nM]	IC50 [3] [nM]	IC50 [4] [nM]	Compound
73.9	6.7	< 20	< 20		CCc1nn(-c2noc(C3CCN(CC4CN(C(=O)COC)C4)CC3)n2)c2c(F)cccc12 [Example 224, 1-[3-({4-[3-(3-ethyl-7-fluoro-1H-indazol-1-yl)-1,2,4-oxadiazol-5-yl]piperidin-1-yl}methyl)azetidin-1-yl]-2-methoxyethanone hydrochloride]
56	16.3			27.4	CC(=O)N1CCC[C@H]1CN1CC[C@@H](Cc2nc(-n3nc(C(C)C)c4cccc(F)c43)no2)C1 [Example 509, 1-[(2S)-2-{[(3S)-3-({3-[7-fluoro-3-(propan-2-yl)-1H-indazol-1-yl]-1,2,4-oxadiazol-5-yl}methyl)pyrrolidin-1-yl]methyl)pyrrolidin-1-yl]ethanone]
109	8.9			33.3	CC(=O)N1CCC(N2CCC(F)(c3nc(-n4nc(C(C)C)c5cccc(F)c54)no3)CC2)CC1 [Example 561, 1-(4-fluoro-4-{3-[7-fluoro-3-(propan-2-yl)-1H-indazol-1-yl]-1,2,4-oxadiazol-5-yl}-1,4′-bipiperidin-1′-yl)ethanone]
30	4.3			< 20	CC(C)c1nn(-c2noc(C[C@@H]3CCN(C[C@H]4CCCN4S(C)(=O)=O)C3)n2)c2c(F)cccc12 [Example 512, 7-fluoro-1-(5-{[(3S)-1-{[(2R)-1-(methylsulfonyl)pyrrolidin-2-yl]methyl}pyrrolidin-3-yl]methyl}-1,2,4-oxadiazol-3-yl)-3-(propan-2-yl)-1H-indazole]
91	5.6			< 20	CC(C)c1nn(-c2noc(C[C@@H]3CCN(C[C@@H]4CCN(C(=O)CO)C4)C3)n2)c2c(F)cccc12 [Example 549, 1-[(3S)-3-{[(3S)-3-({3-[7-fluoro-3-(propan-2-yl)-1H-indazol-1-yl]-1,2,4-oxadiazol-5-yl}methyl)pyrrolidin-1-yl]methyl}pyrrolidin-1-yl]-2-hydroxyethanone]
111	1.6			< 20	COCC(=O)N1CCC(C)(N2CCC(c3nc(-n4nc(C(C)C)c5cccc(F)c54)no3)CC2)CC1 [Example 490, 1-(4-{3-[7-fluoro-3-(propan-2-yl)-1H-indazol-1-yl]-1,2,4-oxadiazol-5-yl}-4′-methyl-1,4′-bipiperidin-1′-yl)-2-methoxyethanone]
106	2.3			< 20	CC(C)c1nn(-c2noc([C@H]3C[C@@H](NCC4CCN(S(C)(=O)=O)CC4)C3)n2)c2c(F)cccc12 [Example 594, cis-3-{3-[7-fluoro-3-(propan-2-yl)-1H-indazol-1-yl]-1,2,4-oxadiazol-5-yl}-N-{[1-(methylsulfonyl)piperidin-4-yl]methyl}cyclobutanamine]
84	5.9			< 20	CCc1nn(-c2noc(C3CCN(C[C@@H]4CCCN4C(=O)CO)CC3)n2)c2c(F)cccc12 [Example 583, 1-[(2S)-2-({4-[3-(3-ethyl-7-fluoro-1H-indazol-1-yl)-1,2,4-oxadiazol-5-yl]piperidin-1-yl}methyl)pyrrolidin-1-yl]-2-hydroxyethanone]
70	2.2			< 20	CC(C)c1nn(-c2noc(C[C@H]3CCN(C4CCN(S(C)(=O)=O)CC4)C3)n2)c2c(F)cccc12 [Example 496, 7-fluoro-1-[5-({(3R)-1-[1-(methylsulfonyl)piperidin-4-yl]pyrrolidin-3-yl}methyl)-1,2,4-oxadiazol-3-yl]-3-(propan-2-yl)-1H-indazole]
70	3.2			< 20	CC(=O)N1CCC(C)(N2CCC(c3nc(-n4nc(C(C)C)c5cccc(F)c54)no3)CC2)CC1 [Example 487, 1-(4-{3-[7-fluoro-3-(propan-2-yl)-1H-indazol-1-yl]-1,2,4-oxadiazol-5-yl}-4′-methyl-1,4′-bipiperidin-1′-yl)ethanone]
			< 20		CCN[C@H]1C[C@@H](c2nc(-n3nc(CC)c4ccc(F)cc43)no2)C1 [Example 278, cis-N-ethyl-3-[3-(3-ethyl-6-fluoro-1H-indazol-1-yl)-1,2,4-oxadiazol-5-yl]cyclobutanamine]
36	3.4			< 20	CC(C)c1nn(-c2noc(C[C@H]3CCN(C[C@@H]4CCCN4S(C)(=O)=O)C3)n2)c2c(F)cccc12 [Example 498, 7-fluoro-1-(5-{[(3R)-1-{[(2S)-1-(methylsulfonyl)pyrrolidin-2-yl]methyl}pyrrolidin-3-yl]methyl}-1,2,4-oxadiazol-3-yl)-3-(propan-2-yl)-1H-indazole]
113	2.3			< 20	COCCNC1CC(c2nc(-n3nc(C(C)C)c4cccc(F)c43)no2)C1 (centres unmarked) [Example 605, 3-{3-[7-fluoro-3-(propan-2-yl)-1H-indazol-1-yl]-1,2,4-oxadiazol-5-yl}-N-(2-methoxyethyl)cyclobutanamine]
91	4.4			< 20	CCc1nn(-c2noc(C3CCN(C4(C)CCN(C(C)=O)CC4)CC3)n2)c2c(F)cccc12 [Example 491, 1-{4-[3-(3-ethyl-7-fluoro-1H-indazol-1-yl)-1,2,4-oxadiazol-5-yl]-4′-methyl-1,4′-bipiperidin-1′-yl}ethanone]
85	5.1			< 20	CC(C)c1nn(-c2noc(C[C@@H]3CCN(C[C@H]4CCN(C(=O)CO)C4)C3)n2)c2c(F)cccc12 [Example 550, 1-[(3R)-3-{[(3S)-3-({3-[7-fluoro-3-(propan-2-yl)-1H-indazol-1-yl]-1,2,4-oxadiazol-5-yl}methyl)pyrrolidin-1-yl]methyl}pyrrolidin-1-yl]-2-hydroxyethanone]
105	2.2			< 20	CC(C)c1nn(-c2noc(C3CCN(C[C@H]4CCN(S(C)(=O)=O)C4)CC3)n2)c2c(F)cccc12 [Example 586, 7-fluoro-1-[5-(1-{[(3R)-1-(methylsulfonyl)pyrrolidin-3-yl]methyl}piperidin-4-yl)-1,2,4-oxadiazol-3-yl]-3-(propan-2-yl)-1H-indazole]
91	3.7			< 20	CCc1nn(-c2noc(C3CCN(C[C@@H]4CCN(C(=O)CO)C4)CC3)n2)c2c(F)cccc12 [Example 582, 1-[(3S)-3-({4-[3-(3-ethyl-7-fluoro-1H-indazol-1-yl)-1,2,4-oxadiazol-5-yl]piperidin-1-yl}methyl)pyrrolidin-1-yl]-2-hydroxyethanone]
